Read-outs that look alike come from different tables or passages of the source. Marks after values point to notes of the source that are not given here.
Columns and labels:
[1] = target: T1, PGD2 receptor (Homo sapiens, UniProt Q13258); experiment: Binding activity to PGD2 receptor in human platelet membrane fraction ([3H]PGD2); design: The platelets were homogenized using a homogenizer (Ultra-Turrax) followed by centrifugation 3 times at 20,000 rpm; from tissue; host or cells: human platelet membrane fraction from blood of healthy volunteers
T1 sequence (Q13258 1-359): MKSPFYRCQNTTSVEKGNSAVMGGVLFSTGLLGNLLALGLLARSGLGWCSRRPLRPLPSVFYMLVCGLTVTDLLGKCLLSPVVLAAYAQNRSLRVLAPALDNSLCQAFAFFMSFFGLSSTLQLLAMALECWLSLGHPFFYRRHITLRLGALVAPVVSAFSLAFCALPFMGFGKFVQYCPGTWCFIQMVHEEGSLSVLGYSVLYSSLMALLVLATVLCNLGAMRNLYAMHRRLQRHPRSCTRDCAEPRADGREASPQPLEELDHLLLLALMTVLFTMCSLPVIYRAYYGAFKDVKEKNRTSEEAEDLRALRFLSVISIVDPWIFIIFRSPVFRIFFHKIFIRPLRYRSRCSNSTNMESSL
Procedure: Experiment 1 Binding activity to PGD2 Receptor
(§1) (1) Preparation of Human Platelet Membrane Fraction
Blood was collected using a plastic syringe containing 3.8% sodium citrate from the vein of healthy volunteers (adult male and female), then put into a plastic test tube and mixed by slow-reversion. The sample was then centrifuged at 1800 rpm, for 10 min at room temperature, and the supernatant containing PRP (platelet-rich plasma) was collected. The PRP was recentrifuged at 2300 rpm, for 22 min at room temperature to obtain platelets. The platelets were homogenized using a homogenizer (Ultra-Turrax) followed by centrifugation 3 times at 20,000 rpm, 10 min at 4° C.. to obtain a platelet membrane fraction. After protein determination, the membrane fraction was adjusted to 2 mg/ml and preserved in a refrigerator at −80° C.. until using for the binding test.
(2) Binding to PGD2 Receptor
To a binding-reaction solution (50 mM Tris/HCl, pH 7.4, 5 mM MgCl2) (0.2 ml) were added the human platelet membrane fraction (0.1 mg) and 5 nM [^3H]PGD2 (115 Ci/mmol), and the mixture was reacted at 4° C. for 90 min. After the reaction, the mixture was filtered through a glass fiber filter paper and washed several times with cooled physiological saline, then the radioactivity retained on the filter paper was measured. The specific-binding ratio was calculated by subtracting the non-specific binding ratio which is the radioactivity similarly measured in the presence of 10 μM PGD2 from the total binding.

[2] = target: T2, TXA2 receptor (Homo sapiens, UniProt P21731); experiment: Binding activity to TXA2 receptor in human platelet membrane fraction ([3H](+)-S-145 sodium salt)
T2 construct: The human platelet membrane fraction was prepared in accordance with Experiment 1 (1); from tissue; host or cells: human platelet membrane fraction from blood of healthy volunteers
T2 sequence (P21731 1-343): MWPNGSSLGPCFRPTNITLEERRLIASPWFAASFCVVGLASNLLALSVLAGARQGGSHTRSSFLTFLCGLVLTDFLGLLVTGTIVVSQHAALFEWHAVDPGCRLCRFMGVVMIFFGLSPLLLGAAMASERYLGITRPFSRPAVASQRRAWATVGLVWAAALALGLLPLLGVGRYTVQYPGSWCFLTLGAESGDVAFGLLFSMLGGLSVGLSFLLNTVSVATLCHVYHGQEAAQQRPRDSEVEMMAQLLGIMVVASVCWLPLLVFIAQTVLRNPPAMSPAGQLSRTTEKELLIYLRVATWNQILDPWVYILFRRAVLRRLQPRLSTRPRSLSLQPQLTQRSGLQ
Procedure: Experiment 2 Binding activity to TXA2 Receptor
as §1
The human platelet membrane fraction was prepared in accordance with Experiment 1 (1).
(2) Binding to TXA2 Receptor
To a binding-reaction solution (50 mM Tris/HCl, pH 7.4, 10 mM MgCl2) (0.2 ml) were added the human platelet membrane fraction (0.05 mg) and 2 nM Sodium [^3H](+)-(5Z)-7- [3-endo- [(phenylsulfonyl)amino]bicyclo[2.2.1]hept-2-exo-yl]heptenoate (Japanese Patent Publication (Kokoku) No.79060/1993, hereinafter referred to as (+)—S—145 sodium salt) (26.4 Ci/mmol), and the mixture was reacted at room temperature for 90 min. After the reaction, the resultant mixture was filtered through a glass fiber filter paper and washed several times with cooled physiological saline, then the radioactivity retained on the filter paper was measured. The specific-binding ratio was calculated by subtracting the non-specific binding ratio (the radio activity similarly determined in the presence of 10 μM (+)—S—145 sodium salt) from the total binding.

[3] = target: T1, PGD2 receptor; experiment: Antagonistic activity against PGD2 receptor using human platelet (inhibition of cAMP increase caused by PGD2); type: cell-based
Procedure: Experiment 3 Evaluation of Antagonistic Activity Against PGD2 Receptor Using Human Platelet
Peripheral blood was collected from a healthy volunteer using a syringe in which 1/9 volume of a citric acid/dextrose solution was previously added. The sample was subjected to centrifugation at 180 g for 10 min to obtain the supernatant (PRP: platelet rich plasma). The resultant PRP was washed 3 times with a washing buffer and the number of platelets was counted with a micro cell counter. A suspension adjusted to contain the platelets at a final concentration of 5×10^8/ml was warmed at 37° C., then subjected to the pre-treatment with 3-isobutyl-1-methylxanthine (0.5 mM) for 5 min. To the suspension was added a test compound diluted at various concentration, and 10 minutes later, 0.1 μM PGD2 was added to induce the reaction 2 minutes later, hydrochloric acid was added to terminate the reaction. The platelet was destroyed with an ultrasonic homogenizer. After centrifugation, the cAMP in the supernatant was determined by radioimmunoassay. PGD2 receptor antagonism of a drug was evaluated as follows: the inhibition rate regarding cAMP increased by the addition of PGD2 was determined at each concentration, and the concentration of the drug required for 50% inhibition (IC50) was calculated.

[4] = tested on: Male Hartley guinea pigs; experiment: Antigen-induced bronchoconstriction; type: in vivo, guinea pig
Procedure: Antigen-induced bronchoconstriction
Male Hartley guinea pigs were passively sensitized by intravenous injection of anti-OVA serum (antibody titer: 1: 3200), and 48 hours later, the animals were challenged by intravenous injection of OVA (70 micro g/kg). The bronchoconstriction induced by antigen was continuously monitored by means of modified method of Konzett-Rössler technique. The peak value of bronchoconstriction in each animal was used for evaluation of compounds. Compound (I-1b) and compound (B-2) were orally administered 1 hour before, compound (A) 2 hours before antigen challenge. The results are shown as follows. *: P<0.05 vs Vehicle, ##: P<0.01 vs Vehicle. ( ): inhibition %.

[5] = tested on: Male Hartley guinea pigs; experiment: Antigen-induced bronchial hyperresponsiveness; type: in vivo, guinea pig; conditions: acetylcholine dose for 200% increase in bronchoconstriction
Procedure: Antigen-induced bronchial hyperresponsiveness
Male Hartley guinea pigs were actively sensitized to ovalbumin (OVA) by inhalation of aerosolized solution of 1% ovalbumin twice at a week interval. One week after the second sensitization, the animals were treated with antihistamine, diphenhydramine (10 mg/kg, i.p.), and then challenged with 1% OVA aerosol for 5 min. Twenty four hours later, acetylcholine at doses at 3.13, 6. 25, 12.5, 25, 50 and 100 micro g/kg was sequentially injected into the animals which were anesthetized with pentobarbital (30 mg/kg, i.p.). The bronchoconstriction induced by each dose of acetylcholine was monitored by the modified method of Konzett-Rössler technique, and made a dose-response curve of acetylcholine. Using the dose-response curve, the dose required for 200% increase in bronchoconstriction from baseline (PD200) was calculated in each animal and used as an indication of bronchial responsiveness. Compounds were orally administered 1 hour before antigen challenge. **: P<0.01 vs Vehicle(Dunnett's test), ##: P<0.01 vs Vehicle(Student's t test).

[6] = Comparative Experiment 1, read-out: Experiment 1 Antaginistic activity against PGD2 receptor IC50
[7] = Comparative Experiment 1, read-out: Experiment 2 Antaginistic activity against TXA2 receptor IC50
[8] = Comparative Experiment 1, read-out: Experiment 3 Antaginistic activity against PGD2 receptor IC50
[9] = 5 nM [3H]PGD2, 4° C., 90 min, read-out: Binding activity to PGD2 receptor in human platelet membrane fraction IC50
[10] = 1 mg/kg orally 1 hour before antigen challenge
[11] = 10 mg/kg orally 1 hour before antigen challenge
[12] = 2 nM [3H](+)-S-145 sodium salt, room temperature, 90 min, read-out: Binding activity to TXA2 receptor in human platelet membrane fraction IC50
[13] = 0.1 μM PGD2, read-out: Inhibitory activity for the increase of cAMP caused by PGD2 in human platelet IC50

Row | IC50 [1, 9] | IC50 [2, 12] | IC50 [3, 13] | Structure (SMILES) | further results
1 | 1 nM | 83 nM | 10 nM | O=C(O)CCCC=CCC1C2CCC(C2)C1NC(=O)c1ccn(S(=O)(=O)c2cccs2)c1 (stereo not drawn) [Compound I-94] | 
2 | 0.1 nM | 39 nM | 1.6 nM | O=C(O)CCCC=CCC1C2CCC(C2)C1NC(=O)c1ccc(CSc2cccs2)s1 (stereo not drawn) [Compound I-104] | 
3 | 13 nM | 13 nM | 9.3 nM | O=C(O)CCCC=CCC1C2CCC(C2)C1NC(=O)c1ccc(SCc2cccs2)s1 (stereo not drawn) [Compound I-106] | 
4 | 11 nM | 52 nM | 22 nM | Cc1ccc(Cc2ccc(C(=O)NC3C4CCC(C4)C3CC=CCCCC(=O)O)s2)s1 (stereo not drawn) [Compound I-129] | 
5 | 23 nM | 16 nM | 15 nM | O=C(O)CCCC=CCC1C2CCC(C2)C1NC(=O)c1ccc(Cc2cc3ccccc3o2)s1 (stereo not drawn) [Compound I-136] | 
6 | 0.46 nM | 34 nM | 29 nM | O=C(O)CCCC=CCC1C2CCC(C2)C1NC(=O)c1csc2c(Cc3cccs3)cccc12 (stereo not drawn) [Compound I-168] | 
7 | 0.61 nM | 32 nM | 26 nM | O=C(O)CCCC=CCC1C2CCC(C2)C1NC(=O)c1csc2c(Cc3ccsc3)cccc12 (stereo not drawn) [Compound I-169] | 
8 | 61 nM | 28 nM | 11 nM | O=C(O)CCCC=CCC1C2CCC(C2)C1NC(=O)c1ccc(Cc2csc3ccccc23)s1 (stereo not drawn) [Compound I-182] | 
9 | 2 nM | 12 nM | 11 nM | CC1(C)C2CC(CC=CCCCC(=O)O)C(NC(=O)c3ccc(S(=O)(=O)n4cccc4)s3)C1C2 (stereo not drawn) [II-15] | 
10 | 0.96 nM | 3.6 nM | 4 nM | CC1(C)C2CC(CC=CCCCC(=O)O)C(NC(=O)c3ccc(S(=O)(=O)c4cccs4)s3)C1C2 (stereo not drawn) [II-18] | 
11 | 0.1 nM | 14 nM | 24 nM | CC1(C)C2CC(CC=CCCCC(=O)O)C(NC(=O)c3ccc(Sc4cccs4)s3)C1C2 (stereo not drawn) [II-21] | 
12 | 72 nM | 4 nM | 45 nM | Cc1cc(S(=O)(=O)c2ccc(C(=O)NC3C(CC=CCCCC(=O)O)CC4CC3C4(C)C)s2)cs1 (stereo not drawn) [II-30] | 
13 | 1.5 nM | 4.4 nM | 3.9 nM | Cc1cccn1S(=O)(=O)c1ccc(C(=O)NC2C(CC=CCCCC(=O)O)CC3CC2C3(C)C)s1 (stereo not drawn) [II-34] | 

The next lines start with the compound.

Row | Structure (SMILES) | IC50 [1, 9] | IC50 [2, 12] | IC50 [3, 13] | further results
14 | CC1(C)[C@H]2C[C@H](C/C=C\CCCC(=O)O)[C@@H](NC(=O)c3csc4ccccc34)[C@@H]1C2 [Compound B-1, reference compound] |  |  |  | IC50 [1, 6]: 8.2 nM; IC50 [2, 7]: 3800 nM; IC50 [3, 8]: 41 nM
15 | O=C(O)CCC/C=C\C[C@H]1[C@@H]2CC[C@@H](C2)[C@@H]1NC(=O)c1ccc(S(=O)(=O)n2cccc2)s1 [Compound I-1b, (5Z)-7-{(1R,2S,3S,4S)-3-[5-(pyrrol-1-ylsulfonyl)-thiophen-2-ylcarbonylamino]-bicyclo[2.2.1]hept-2-yl}-5-heptenoic acid] | 4.3 nM | 3 nM | 1.3 nM | IC50 [1, 6]: 4.3 nM; Peak bronchoconstriction [4, 10]: 47.4 ± 11.4 cm H2O; Peak bronchoconstriction, inhibition % [4, 10]: 31%; Peak bronchoconstriction [4, 11]: 28.4 ± 12.9 cm H2O; Peak bronchoconstriction, inhibition % [4, 11]: 58%; IC50 [2, 7]: 3 nM; IC50 [3, 8]: 1.3 nM; Log PD200 [5, 10]: 1.25 ± 0.05; Log PD200 [5, 11]: 1.52 ± 0.06**
16 | O=C(O)CCCC=CCC1C2CCC(C2)C1NC(=O)c1ccc(S(=O)(=O)c2cccs2)s1 (stereo not drawn) [Compound I-47] | 4.1 nM | 6.2 nM | 7 nM | 
17 | O=C(O)CCCC=CCC1C2CCC(C2)C1NC(=O)c1ccc(Sc2cccs2)s1 (stereo not drawn) [Compound I-59] | 0.41 nM | 16 nM | 4.6 nM | 
18 | O=C(O)CCCC=CCC1C2CCC(C2)C1NC(=O)c1ccc(Sc2ccsc2)s1 (stereo not drawn) [Compound I-79] | 0.42 nM | 15 nM | 24 nM | 
19 | O=C(O)CCCC=CCC1C2CCC(C2)C1NC(=O)c1ccc(S(=O)(=O)c2ccsc2)s1 (stereo not drawn) [Compound I-80] | 6.6 nM | 5.2 nM | 39 nM | 
20 | Cc1ccc(S(=O)(=O)c2ccc(C(=O)NC3C4CCC(C4)C3CC=CCCCC(=O)O)s2)s1 (stereo not drawn) [Compound I-82] | 32 nM | 1.8 nM | 53 nM | 
21 | O=C(O)CCCC=CCC1C2CCC(C2)C1NC(=O)c1ccc(Cc2ccsc2)s1 (stereo not drawn) [Compound I-88] | 7.6 nM | 78 nM | 4.7 nM | 
22 | O=C(O)CCCC=CCC1C2CCC(C2)C1NC(=O)c1ccc(Cc2cccs2)s1 (stereo not drawn) [Compound I-93] | 7 nM | 72 nM | 8.4 nM | 

Source: patent US7105564B1, “Pharmaceutical composition comprising a dual antagonist against PGD2/TXA2 receptors having a [2.2.1] or [3.1.1] bicyclic skeleton” (Shionogi & Co., Ltd., priority 1999, dated 2006)
